Results published in US11427531B2, “Modulators of potassium ion and TRPV1 channels and uses thereof” (Ramot at Tel-Aviv University Ltd., priority 2017, dated 2022).
Like-named read-outs stand apart in the source and are kept apart here.

Columns and labels:
[1] = system: DRG neuron spike discharge triggered by activation of TRPV1 channels by capsaicin; assay: Capsaicin-evoked DRG neuron spike discharge; type: cell-based
Protocol: (§1) For current-clamp recordings in DRG neurons, the patch pipettes were filled with (in mM): 135 KCl, 1 K2ATP, 1 MgATP, 2 EGTA, 1.1 CaCl2, 5 glucose (free [Ca^2+]i=87 nM), 10 HEPES, adjusted with KOH at pH 7.4 (315 mOsm). The external solution contained (in mM): 150 NaCl, 2.5 KCl, 2 CaCl2, 2 MgCl2, 15 glucose, 10 HEPES, adjusted with NaOH at pH 7.4 (325 mOsm). Drug exposure was evoked by rapid application using a fast perfusion system (AutoMate Scientific).
The dual targeting and the synergistic effect of NH91 is further illustrated in FIGS. 17A-B and 18A-B, by its effect on the DRG neuron spike discharge triggered by the activation of TRPV1 channels by 1 μM capsaicin.

[2] = molecular target: T1, recombinant Kv7.2/3 channels (Homo sapiens, UniProt O43525+O43526); assay: Whole-cell patch clamp of recombinant Kv7.2/3 currents in transfected CHO cells; type: cell-based; settings: for V50 (parameter of potency for Kv7.2/3 At 5 μM): compound at 5 μM, N = 5-12; for EC50: N = 5-10; for increase of the amplitude of recombinant Kv7.2/3 currents: 5 μM compound, at −40 mV, CHO cells
T1 construct: expressed in transfected cells; host or cells: CHO cells
Protocol: Chinese hamster ovary CHO cells were grown in Dulbecco's modified Eagle's medium supplemented with 2 mM glutamine, 10% fetal calf serum, and antibiotics. In brief, 40,000 cells seeded on poly-D-lysine-coated glass coverslips (13 mm in diameter) in a 24-multiwell plate were transfected with pIRES-CD8 (0.3 μg) as a marker for transfection with 0.5 μg Kv7.2 and 0.5 μg Kv7.3. Transfection was performed using 3.6 μl of X-tremeGENE 9 (Roche) according to the manufacturer's protocol. For electrophysiology, transfected cells were visualized approximately 40 h after transfection, using the anti-CD8 antibody coated beads method.
(§2) For Kv7.2 potassium current recordings, the patch pipettes were pulled from borosilicate glass (Warner Instrument Corp) with a resistance of 3-7 MΩ, and were filled with (in mM): 130 KCl, 5 Mg ATP, 5 EGTA, 10 HEPES, pH 7.3 (adjusted with KOH), and sucrose was added to adjust osmolarity to 290 mOsmol. The external solution contained (in mM): 140 NaCl, 4 KCl, 1.2 MgCl2, 1.8 CaCl2, 11 glucose, 5.5 HEPES, pH 7.3 (adjusted with NaOH), and sucrose was added to adjust osmolarity to 310 mOsmol. […] For TRPV1 current recordings, the solutions were the same as those used for Kv7.2, except that the extracellular solution contained no CaCl2 to limit desensitization and included 1 mM EGTA and 1 mM MgCl2.
Chinese hamster ovary CHO cells were grown in Dulbecco's modified Eagle's medium supplemented with 2 mM glutamine, 10% fetal calf serum, and antibiotics. In brief, 40,000 cells seeded on poly-D-lysine-coated glass coverslips (13 mm in diameter) in a 24-multiwell plate were transfected with pIRES-CD8 (0.3 μg) as a marker for transfection with 0.5 μg of Kv7.2 and Kv7.3 cDNA plasmids. Transfection was performed using 3.6 μl of X-tremeGENE 9 (Roche) according to the manufacturer's protocol. For electrophysiology, transfected cells were visualized approximately 40 h after transfection, using the anti-CD8 antibody coated beads method. Recordings were performed using the whole cell configuration of the patch clamp technique. Signals were amplified using an Axopatch 200B patch-clamp amplifier (Axon Instruments), sampled at 5 kHz and filtered at 2.4 kHz via a four pole Bessel low pass filter. Data were acquired using pClamp 10.5 software in conjunction with a DigiData 1440A interface. The patch pipettes were pulled from borosilicate glass (Harvard Apparatus) with a resistance of 3-7 megaohms. The intracellular pipette solution contained 130 mM KCl, 5 mM K2-ATP, 5 mM EGTA (or 5 mM BAPTA when indicated), 10 mM HEPES, pH 7.3 (adjusted with KOH), CaCl2 (as needed for different values of free Ca2+ concentration according to MAXCHELATOR software, with sucrose added to adjust osmolarity to 290 mosmol. The external solution contained 140 mM NaCl, 4 mM KCl, 1.8 mM CaCl2, 1.2 mM MgCl2, 11 mM glucose, 5.5 mM HEPES, adjusted with NaOH to pH 7.3 (310 mOsM). Series resistances were compensated (75-90%) and periodically monitored. Data analysis was performed using the Clampfit program (pClamp 10.5; Axon Instruments), Microsoft Excel (Microsoft, Redmond, Wash.), and Prism 5.0 (GraphPad Software, Inc., San Diego, Calif.). Leak subtraction was performed off-line, using the Clampfit program of the pClamp 10.5 software.
The normalized conductance was plotted as a function of the test voltages, for cells in the absence and presence of the drug. Chord conductance (G) was calculated by using the following equation: G=I/(V−Vrev), where I corresponds to the current amplitude measured at the end of the pulse, and Vrev is the calculated reversal potential assumed to be −90 mV in CHO cells. G was estimated at various test voltages (V) and then normalized to a maximal conductance value, Gmax. Activation curves were fitted by one Boltzmann distribution: G/Gmax=1/{1+exp[(V50−V)/s]}, where V50 is the voltage at which the current is half-activated and s is the slope factor.

[3] = molecular target: T2, recombinant TRPV1 channel (Homo sapiens, UniProt Q8NER1); assay: Whole-cell recording of capsaicin-activated recombinant TRPV1 currents in transfected CHO cells; type: cell-based
T2 construct: expressed in transfected cells; host or cells: CHO cells
T2 sequence (Q8NER1 whole entry): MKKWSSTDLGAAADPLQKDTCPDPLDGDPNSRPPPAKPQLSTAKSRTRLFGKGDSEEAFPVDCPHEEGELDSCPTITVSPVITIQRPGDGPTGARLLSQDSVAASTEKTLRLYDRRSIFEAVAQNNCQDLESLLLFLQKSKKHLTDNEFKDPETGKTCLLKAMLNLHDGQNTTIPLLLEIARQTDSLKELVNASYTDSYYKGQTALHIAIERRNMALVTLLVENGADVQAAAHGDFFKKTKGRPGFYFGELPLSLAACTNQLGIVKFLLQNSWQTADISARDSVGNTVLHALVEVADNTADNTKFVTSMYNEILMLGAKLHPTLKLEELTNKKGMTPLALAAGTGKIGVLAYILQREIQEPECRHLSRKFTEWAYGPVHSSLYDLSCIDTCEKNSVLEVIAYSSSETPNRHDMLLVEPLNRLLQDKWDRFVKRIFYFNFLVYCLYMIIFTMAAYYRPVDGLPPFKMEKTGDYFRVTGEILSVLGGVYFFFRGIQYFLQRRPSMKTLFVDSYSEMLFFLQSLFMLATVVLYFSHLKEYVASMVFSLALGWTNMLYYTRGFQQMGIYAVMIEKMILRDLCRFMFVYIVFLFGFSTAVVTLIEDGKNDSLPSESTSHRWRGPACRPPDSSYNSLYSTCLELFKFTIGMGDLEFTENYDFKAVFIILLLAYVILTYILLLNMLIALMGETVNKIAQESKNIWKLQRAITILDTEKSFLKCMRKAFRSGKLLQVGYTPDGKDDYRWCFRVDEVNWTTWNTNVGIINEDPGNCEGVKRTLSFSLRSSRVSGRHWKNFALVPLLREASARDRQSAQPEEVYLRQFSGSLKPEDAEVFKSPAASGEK
Protocol: as §2
Inhibition of recombinant TRPV1 channel was tested as described in Example 2 hereinabove.
TRPV1 whole-cell currents were activated by exposing transfected CHO cells to 0.5 μM capsaicin at a holding potential of −60 mV.
FIG. 9 presents the effect of 5 μM NH66 on recombinant TRPV1 currents activated by 0.1 μM capsaicin (CAP). In FIG. 9 are shown the TRPV1 currents evoked by application of 0.1 μM capsaicin to transfected CHO cells. In the upper panel are shown the currents only evoked by application of 0.1 μM capsaicin; in the middle panel, are shown the currents first evoked by application of 0.1 μM capsaicin+5 μM NH66, then by 0.1 μM capsaicin only.

[4] = system: nociceptive dorsal root (DRG) sensory neurons; assay: Current-clamp recording of evoked spike discharge in DRG neurons; type: cell-based, rat
Protocol: Inhibition of the evoked spike discharge of nociceptive dorsal root (DRG) sensory neurons was tested as follows:
as §1

[5] = molecular target: cardiac Herg channel (Homo sapiens, UniProt Q12809); assay: Cardiac channel Herg current recordings
Chain of cardiac Herg channel (Q12809 whole entry): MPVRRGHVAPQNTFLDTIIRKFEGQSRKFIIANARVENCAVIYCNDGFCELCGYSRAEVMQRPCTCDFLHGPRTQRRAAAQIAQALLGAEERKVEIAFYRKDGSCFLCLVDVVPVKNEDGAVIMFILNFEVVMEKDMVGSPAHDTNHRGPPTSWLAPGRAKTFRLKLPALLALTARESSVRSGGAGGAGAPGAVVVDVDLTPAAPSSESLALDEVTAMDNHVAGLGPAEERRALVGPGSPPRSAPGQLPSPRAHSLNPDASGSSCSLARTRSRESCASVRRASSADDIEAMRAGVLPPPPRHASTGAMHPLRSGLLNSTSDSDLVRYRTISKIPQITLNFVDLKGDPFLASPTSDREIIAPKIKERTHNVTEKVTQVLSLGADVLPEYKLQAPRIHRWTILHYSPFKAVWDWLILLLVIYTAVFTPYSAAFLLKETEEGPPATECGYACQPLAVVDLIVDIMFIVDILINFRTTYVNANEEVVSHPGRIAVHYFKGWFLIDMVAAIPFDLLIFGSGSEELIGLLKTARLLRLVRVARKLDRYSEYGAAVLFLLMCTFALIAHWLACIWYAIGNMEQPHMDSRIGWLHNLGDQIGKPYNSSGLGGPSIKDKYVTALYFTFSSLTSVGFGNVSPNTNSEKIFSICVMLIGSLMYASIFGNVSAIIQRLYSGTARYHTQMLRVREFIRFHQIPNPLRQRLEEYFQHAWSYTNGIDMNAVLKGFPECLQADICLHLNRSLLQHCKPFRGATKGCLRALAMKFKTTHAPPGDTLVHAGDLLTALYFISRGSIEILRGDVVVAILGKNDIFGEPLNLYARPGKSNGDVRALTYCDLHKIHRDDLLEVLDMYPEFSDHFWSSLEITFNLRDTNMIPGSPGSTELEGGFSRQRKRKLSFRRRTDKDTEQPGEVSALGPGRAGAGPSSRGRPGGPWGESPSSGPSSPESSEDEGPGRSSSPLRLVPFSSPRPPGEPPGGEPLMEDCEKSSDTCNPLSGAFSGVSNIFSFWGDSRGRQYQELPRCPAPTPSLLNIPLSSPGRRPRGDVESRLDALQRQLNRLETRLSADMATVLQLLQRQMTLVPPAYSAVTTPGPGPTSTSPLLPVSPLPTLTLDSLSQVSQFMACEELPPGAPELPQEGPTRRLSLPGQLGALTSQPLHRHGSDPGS
Protocol: Cardiac channel Herg current recordings were performed as follows:
Cells were held at −90 mV and stepped for 1.5 s from −70 mV to +30 mV in 10 mV increments and repolarized at −60 mV.

[6] = system: inward voltage-dependent Ca2+ and Na+ current in DRG neurons; assay: Inward voltage-dependent Ca2+ and Na+ current in DRG neurons; type: cell-based; settings: 5 μM
[7] = N = 5-10, Retigabine: No effect at 30, read-out: IC50 on TRPV1
[8] = Rattus norvegicus, Neuron, N = 5-10, read-out: IC50 on inhibition of evoked spike discharge in DRG sensory neurons
[9] = DRG neuron, rat DRG neurons, read-out: IC50 of inhibition of evoked spike discharge of nociceptive DRG sensory neurons

Structure (SMILES) | inhibition at 0.1 µM ([1]; DRG neuron, read-out: inhibition of capsaicin-evoked DRG spikes) [%] | V50 (parameter of potency for Kv7.2/3 At 5 μM) [2] [mV] | IC50 [3, 7] [nM] | IC50 ([4]; Rattus norvegicus, Neuron, read-out: IC50 on inhibition of evoked spike discharge in DRG sensory neurons) [nM] | IC50 [5] [nM] | EC50 [2] [nM] | IC50 [4, 8] [nM] | increase of the amplitude of recombinant Kv7.2/3 currents [2] | IC50 [4, 9] [nM] | IC50 ([3]; currents activated by 0.1 μM capsaicin, read-out: IC50 of inhibition of recombinant TRPV1 currents) [nM] | effect on DRG evoked spike discharge (in words) [4] | effect on amplitude at −40 mV and voltage-dependence of Kv7.2/3 channels (in words) [2] | inhibition of capsaicin-evoked DRG spike discharge in the presence of XE991 ([1]; Kv7.2/3 channel blocker XE991 10 μM present, n=11) [%] | effect on inward voltage-dependent Ca2+ and Na+ current in DRG neurons [6] | IC50 on TRPV1 ([3]; N = 5-10, Retigabine: No effect at 30)
CC(=O)Nc1nc2c(Oc3cc(-c4ccc(C(F)(F)F)cc4)ncn3)cccc2s1 [AMG 517, reference compound] | 42 | – | – | – | – | – | – | – | – | – | – | – | – | – | –
O=C(Cc1cc([N+](=O)[O-])cc([N+](=O)[O-])c1Nc1c(Cl)cc([N+](=O)[O-])cc1Cl)NCCO [NH29, reference compound] | – | −27.4 | 4200 | 18000 | 5000 | – | – | – | – | – | – | – | – | – | –
O=C(Cc1ccc(Nc2c(Cl)cc(C(F)(F)F)cc2Cl)cc1)NCCO [NH34, reference compound] | – | −28.1 | 55000 | – | 35000 | 17500 | 25000 | – | – | – | – | – | – | – | –
O=C(Cc1cc(Nc2c(Cl)cc(Cl)cc2Cl)ccc1F)NCCO [NH43, reference compound] | – | −42.0 | 400 | – | > 60000 | 600 | 300 | about 3.5 fold | 300 | – | – | – | – | – | –
CC(C)(O)CNC(=O)Cc1cc(Nc2c(Cl)cc(Cl)cc2Cl)ccc1F [NH66] | – | −30.3 | – | – | > 60000 | 1000 | 500 | about 3.5 fold | 500 | 300 | – | – | – | – | –
CC(C)(CO)CNC(=O)Cc1cc(Nc2c(Cl)cc(Cl)cc2Cl)ccc1F [NH82] | – | −41.1 | 400 | – | > 100000 | 500 | 500 | – | – | – | – | – | – | – | –
CC(C)(O)CCNC(=O)Cc1cc(Nc2c(Cl)cc(Cl)cc2Cl)ccc1F [NH83] | – | −37.3 | 800 | – | – | 600 | 200 | – | – | – | slightly improved activity | – | – | – | –
CC(C)c1cc(Cl)cc(Cl)c1Nc1ccc(F)c(CC(=O)NCC(C)(C)O)c1 [NH91] | – | −42.4 | 100 | – | > 60000 | 2000 | 1000 | – | – | – | prominently inhibits | potently increase the amplitude left-shift the voltage-dependence of activation | 50 | did not affect | –
CC(C)(O)CCNC(=O)Cc1cc(Nc2c(Cl)cc(Cl)cc2C2CC2)ccc1F [NH101] | – | −67.4 | 100 | – | > 50000 | 200 | 200 | – | – | – | – | potently increase the amplitude left-shift the voltage-dependence of activation | – | – | –
O=C(Cc1cc(Nc2c(Cl)cc(Cl)cc2Cl)ccc1F)NC1CCC(O)C1 (stereo not shown) [NH110] | – | −38.5 | – | – | – | 7300 | 200 | – | – | – | inhibits | potently increase the amplitude left-shift the voltage-dependence of activation | – | – | –
CCOC(=O)Nc1ccc(NCc2ccc(F)cc2)cc1N [Retigabine, N-(2-amino-4-(4-fluorobenzylamino)-phenyl)carbamic acid ethyl ester, reference compound] | – | −30.4 | – | – | > 30000 | – | 5000 | – | – | – | – | – | – | – | No effect
